# Key:
# [1] = Blood glucose in streptozotocin-induced diabetic rats (Experimental Example 1); format: in vivo, rat; conditions: STZ diabetic rats; for blood glucose: 6 weeks after administration, mean ± standard error
# Description: (§1) Diabetes was induced by intravenous administration of streptozotocin (65 mg/kg) to 6-week-old male Sprague-Dawley rats. Starting from 2-4 weeks after the onset of diabetes, a 0.5% hydroxypropylmethylcellulose suspension containing the compound of the present invention was orally administered once a day. At 4-7 weeks from the administration, tail nerve conduction velocity was measured with an induction potential test device (Neuropack 2, manufactured by Nihon Kohden) according to a modification of the method of Miyoshi (Fukuoka Medical Journal, vol. 62, pp. 588-603 (1971)). To be specific, subcutaneous temperature at the tail was maintained at 37° C. and the tail nerve was percutaneously stimulated electrically at 2 stimulation points (interval 6 cm). The distance between stimulation points was divided by the difference between latencies in electromyogram induced to give nerve conduction velocity. As to the test group in Table 1, blood glucose was measured at 6 weeks after administration. At 7 weeks after administration, urinary excretion of TXB2, which is a stable metabolite of TXA2, was measured.
# [2] = system: kidney glomerulus of streptozotocin diabetic Sprague-Dawley rats; assay: Degree of glomerular disorder in streptozotocin-induced diabetic rats (Experimental Example 4); format: in vivo, rat; conditions: STZ diabetic rats; for glomerular disorder score: total score of 50 glomeruli (0-4 each), mean ± standard error
# Description: Diabetes was induced by intravenous administration of streptozotocin (65 mg/kg) to 5-week-old male Sprague-Dawley rats. Starting from 9 weeks after the onset of diabetes, a 0.5% hydroxypropylmethylcellulose suspension containing compound A-1 was orally administered once a day. At 9 weeks from the administration, kidney was removed to determine the degree of glomerular disorder and fixed in a 10% neutral-buffered formalin solution. Tissue sections were stained with hematoxylin/eosin. Glomerulus was evaluated according to the degree of obstruction in 5 stages (0: no obstruction, 1: up to 25% obstruction, 2: up to 50% obstruction, 3: up to 75% obstruction, 4: up to 100% obstruction). Fifty glomeruli were evaluated per sample and the total score was used as an index of the degree of glomerular disorder. This operation was done under a single blind condition.
# [3] = system: tail nerve of streptozotocin diabetic Sprague-Dawley rats; assay: Tail nerve conduction velocity in rats, administration from 16 weeks after onset of streptozotocin diabetes (Experimental Example 3); format: in vivo, rat; conditions: for tail nerve conduction velocity 5 wks after administration: started 16 weeks after onset of STZ diabetes; for tail nerve conduction velocity 5 wks after administration / tail nerve conduction velocity Before administration: mean ± standard error; for tail nerve conduction velocity Before administration: 16 weeks after onset of STZ diabetes
# Description: Diabetes was induced by intravenous administration of streptozotocin (65 mg/kg) to 6-week-old male Sprague-Dawley rats. Starting from 16 weeks after the onset of diabetes, a 0.5% hydroxypropylmethylcellulose suspension containing compound A-1 was orally administered once a day. At 5 weeks from the administration, tail nerve conduction velocity was measured with arm induction potential test device (Neuropack 2, manufactured by Nihon Kohden) according to a modification of the method of Miyoshi (Fukuoka Medical Journal, vol. 62, pp. 588-603 (1971)). To be specific, subcutaneous temperature at the tail was maintained at 37° C. and the tail nerve was percutaneously stimulated electrically at 2 stimulation points (interval 6 cm). The distance between the stimulation points was divided by the difference between latencies in induced electromyogram to give nerve conduction velocity.
# [4] = system: TXA2 biosynthesis (urinary TXB2); assay: Urinary excretion of TXB2, stable metabolite of TXA2, in streptozotocin-induced diabetic rats (Experimental Example 1); format: in vivo, rat; conditions: STZ diabetic rats; for urinary TXB2 excretion: 7 weeks after administration, mean ± standard error
# Description: as §1
# [5] = system: tail nerve of streptozotocin diabetic Sprague-Dawley rats; assay: Tail nerve conduction velocity in streptozotocin-induced diabetic rats (Experimental Example 1); format: in vivo, rat; conditions: STZ diabetic rats; for tail nerve conduction velocity 7 wks after administration / tail nerve conduction velocity 5 wks after administration / tail nerve conduction velocity 4 wks after administration: mean ± standard error; for effect on tail nerve conduction velocity decreased by diabetes (in words): dose-dependent, oral once a day
# Description: as §1
# [6] = system: sciatic nerve of spontaneously diabetic mice (db/db); assay: Sciatic nerve conduction velocity in spontaneously diabetic mice (db/db) (Experimental Example 2); format: in vivo, mouse; conditions: for sciatic nerve conduction velocity 4 wks after administration / sciatic nerve conduction velocity 5 wks after administration: db/db mice, mean ± standard error; for effect on sciatic nerve conduction velocity (in words): spontaneous diabetic mice, oral once a day
# Description: A 0.5% hydroxypropylmethylcellulose suspension containing the compound of the present invention was orally administered to 9-week-old male spontaneously diabetic mice (db/db) once a day. At 4-5 weeks from the administration, sciatic nerve conduction velocity was measured with an induction potential test device (Neuropack 2, manufactured by Nihon Kohden) according to a modification of the method of Yasuda (Diabetes, 38, p. 832-838 (1989)). To be specific, rectal temperature was maintained at 37° C. and two points of sciatic notch and ankle were percutaneously stimulated electrically. The distance between the stimulation points was divided by the difference between latencies in induced electromyogram to give nerve conduction velocity.
# [7] = system: tail nerve of rats with diabetes; assay: Tail nerve conduction velocity in rats with diabetes (sodium ozagrel); format: in vivo, rat
# [8] = system: biosynthesis of TXA2; assay: Biosynthesis of TXA2 in rats with diabetes (sodium ozagrel); format: in vivo, rat
compound,measurement,setting,value
"Cc1ccc(-n2ccnc2)cc1C(O)c1c(C)cc(C(=O)[O-])cc1C.O.O.[Na+] (stereo not drawn) [Compound A-1, sodium 4-[α-hydroxy-2-methyl-5-(1-imidazolyl)benzyl]-3,5-dimethylbenzoate dihydrate]",blood glucose,[1]; 0.03 mg/kg/day oral once a day,718.3 ± 50.7 mg/dL
same,blood glucose,[1]; 0.1 mg/kg/day oral once a day,772.1 ± 32.4 mg/dL
same,blood glucose,[1]; 0.3 mg/kg/day oral once a day,791.9 ± 65.5 mg/dL
same,blood glucose,[1]; 1.0 mg/kg/day oral once a day,718.4 ± 64.1 mg/dL
same,effect on blood glucose (in words),[1]; 0.03-1.0 mg/kg/day,without affecting the blood glucose
same,glomerular disorder score,[2]; 0.3 mg/kg/day oral once a day for 9 weeks,90.8 ± 10.0
same,glomerular disorder score,[2]; 1 mg/kg/day oral once a day for 9 weeks,65.7 ± 12.0
same,glomerular disorder score,[2]; 10 mg/kg/day oral once a day for 9 weeks,55.4 ± 9.2
same,effect on glomerular disorder due to diabetes (in words),[2]; dose-dependent,suppressed glomerular disorder
same,tail nerve conduction velocity 5 wks after administration,[3]; 0.3 mg/kg/day oral once a day,48.3 ± 0.6 m/sec
same,tail nerve conduction velocity 5 wks after administration,[3]; 1 mg/kg/day oral once a day,49.4 ± 0.4 m/sec
same,tail nerve conduction velocity 5 wks after administration,[3]; 3 mg/kg/day oral once a day,50.2 ± 0.5 m/sec
same,effect on tail nerve conduction velocity lowered by the progression of diabetes (in words),"[3]; administration from 16 weeks after onset of diabetes, dose-dependent",increased tail nerve conduction velocity
same,tail nerve conduction velocity Before administration,[3]; baseline of the 0.3 mg/kg/day group,46.2 ± 0.5 m/sec
same,tail nerve conduction velocity Before administration,[3]; baseline of the 1 mg/kg/day group,46.1 ± 0.4 m/sec
same,tail nerve conduction velocity Before administration,[3]; baseline of the 3 mg/kg/day group,46.0 ± 0.3 m/sec
same,urinary TXB2 excretion,[4]; 0.03 mg/kg/day oral once a day,10.6 ± 1.4 ng/day/100 g body weight
same,urinary TXB2 excretion,[4]; 0.1 mg/kg/day oral once a day,6.9 ± 0.8 ng/day/100 g body weight
same,urinary TXB2 excretion,[4]; 0.3 mg/kg/day oral once a day,5.1 ± 0.5 ng/day/100 g body weight
same,urinary TXB2 excretion,[4]; 1.0 mg/kg/day oral once a day,3.4 ± 0.3 ng/day/100 g body weight
same,effect on urinary TXB2 excretion increased by diabetes (in words),"[4]; dose-dependent, 0.03-1.0 mg/kg/day",decreased urinary TXB2 excretion
same,tail nerve conduction velocity 7 wks after administration,[5]; 0.03 mg/kg/day oral once a day,42.0 ± 0.5 m/sec
same,tail nerve conduction velocity 7 wks after administration,[5]; 0.1 mg/kg/day oral once a day,43.4 ± 0.4 m/sec
same,tail nerve conduction velocity 7 wks after administration,[5]; 0.3 mg/kg/day oral once a day,43.7 ± 0.3 m/sec
same,tail nerve conduction velocity 7 wks after administration,[5]; 1.0 mg/kg/day oral once a day,44.8 ± 0.4 m/sec
same,effect on tail nerve conduction velocity decreased by diabetes (in words),[5],increased tail nerve conduction velocity
"Cc1ccc(-n2ccnc2)cc1[C@H](O)c1c(C)cc(C(=O)[O-])cc1C.O.[Na+] [Compound A-2, sodium (S)-(−)-4[α-hydroxy-2-methyl-5-(1-imidazolyl)benzyl]-3,5-dimethylbenzoate 2/3 hydrate]",sciatic nerve conduction velocity 4 wks after administration,[6]; 0.05 mg/kg/day oral once a day,46.6 ± 1.5 m/sec
same,sciatic nerve conduction velocity 4 wks after administration,[6]; 0.5 mg/kg/day oral once a day,51.9 ± 1.2 m/sec
same,sciatic nerve conduction velocity 4 wks after administration,[6]; 5 mg/kg/day oral once a day,51.7 ± 1.4 m/sec
same,effect on sciatic nerve conduction velocity (in words),[6],increased sciatic nerve conduction velocity
same,tail nerve conduction velocity 5 wks after administration,[5]; 0.03 mg/kg/day oral once a day,40.7 ± 0.5 m/sec
same,tail nerve conduction velocity 5 wks after administration,[5]; 0.1 mg/kg/day oral once a day,42.6 ± 0.4 m/sec
same,tail nerve conduction velocity 5 wks after administration,[5]; 0.3 mg/kg/day oral once a day,43.0 ± 0.3 m/sec
same,tail nerve conduction velocity 5 wks after administration,[5]; 1 mg/kg/day oral once a day,42.6 ± 0.5 m/sec
same,effect on tail nerve conduction velocity decreased by diabetes (in words),[5],suppressed decrease in tail nerve conduction velocity
"Cc1ccc(-n2ccnc2)cc1[C@H](O)c1c(C)cc(C(=O)O)cc1C [Compound A-4, (S)-(−)-4-[α-hydroxy-2-methyl-5-(1-imidazolyl)benzyl]-3,5-dimethylbenzoic acid]",sciatic nerve conduction velocity 5 wks after administration,[6]; 0.3 mg/kg/day oral once a day,45.2 ± 1.2 m/sec
same,sciatic nerve conduction velocity 5 wks after administration,[6]; 1 mg/kg/day oral once a day,45.9 ± 0.7 m/sec
same,sciatic nerve conduction velocity 5 wks after administration,[6]; 3 mg/kg/day oral once a day,45.3 ± 0.8 m/sec
same,effect on sciatic nerve conduction velocity (in words),[6],increased sciatic nerve conduction velocity
same,tail nerve conduction velocity 4 wks after administration,[5]; 0.3 mg/kg/day oral once a day,40.9 ± 0.5 m/sec
same,tail nerve conduction velocity 4 wks after administration,[5]; 1 mg/kg/day oral once a day,41.3 ± 0.4 m/sec
same,tail nerve conduction velocity 4 wks after administration,[5]; 3 mg/kg/day oral once a day,41.7 ± 0.5 m/sec
same,effect on tail nerve conduction velocity decreased by diabetes (in words),[5],suppressed decrease in tail nerve conduction velocity
"O=C([O-])/C=C/c1ccc(Cn2ccnc2)cc1.[Na+] [sodium ozagrel, sodium (E)-p-(imidazol-1-ylmethyl)cinnamate]",effect on decreased tail nerve conduction velocity (in words),[7],does not improve decreased tail nerve conduction velocity
same,effect on promotion of biosynthesis of TXA2 (in words),[8],suppresses promotion of biosynthesis of TXA2
